Consider 11 compounds from ChEMBL document CHEMBL1201862, “PubChem BioAssay data set” (2004).

Experiment in all cases: NCI tumour cell line growth inhibition, 48 h
Assay [1] has as its system M14.
For assay [2], the system named is KM12.
Assay [3] has as its system A498.
The subject of assay [4] is HT-29.
For assay [5], the system named is U-251.
The test system of assay [6] is HOP-62.
In assay [7] the test system is UACC-257.
For assay [8], the system named is HCT-15.
Assay [9] relates to CAKI-1.
In assay [10] the test system is SN12C.
Assay [11] relates to HCT-116.
Assay [12] deals with SK-MEL-5.
Assay [13] deals with K562.
In assay [14] the test system is SF-268.
The subject of assay [15] is NCI-H460.
Assay [16] has as its system DU-145.
Assay [17] has as its system OVCAR-3.
Assay [18] relates to HOP-92.
For assay [19], the system named is HCC 2998.
Assay [20] has as its system COLO 205.

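Briefly, cells in 96-well plates were exposed to five compound concentrations for 48 h, and endpoints were estimated by linear interpolation. Here, GI50 denotes the concentration required for 50% inhibition of growth.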 Calls of active or inactive are those of the source. No stated cut-off is given here; in the data, active = GI50 up to about 1.1 µM and inactive = higher. A value given as a limit tells only on which side of the number the result lay.

`O=C(O)C(O)(c1ccc(-c2ccccc2)cc1)c1ccc(-c2ccccc2)cc1`: the GI50 in assay [1] is 35 µM (inactive); in assay [2], 19.9 µM (inactive); in assay [3], 23.3 µM (inactive); in assay [4], 30.2 µM (inactive); in assay [5], 17.1 µM (inactive); in assay [6] it was 20.1 µM (inactive). In addition, the GI50 is 36.1 µM (inactive) in assay [7]; 19.2 µM in assay [8]; 28.8 µM (inactive) in assay [9]; 22 µM (inactive) in assay [10]; 23.5 µM (inactive) in assay [11]; 18.9 µM (inactive) in assay [12]. In addition, the GI50 is 80.9 µM (inactive) in [13]; 24.3 µM (inactive) in assay [14]; 20.4 µM (inactive) in assay [15]; 16.6 µM (inactive) in assay [16]; 15 µM (inactive) in assay [17]; 19.1 µM (inactive) in assay [18].

For `CC1=C[C@H](O)[C@@]2(C)[C@@H]([C@@H]1C)[C@H]1CC[C@@H]3[C@@]4(C)CC[C@H](O)C(C)(C)[C@@H]4CC[C@@]3(C)[C@]1(C)C[C@@H]2O`, the GI50 in assay [1] is 17.1 µM (inactive); in assay [2], 22.1 µM (inactive); in assay [19], 18.8 µM (inactive); in assay [4] it was 13.8 µM (inactive); in [5], 20 µM (inactive); in [6], 17.3 µM (inactive). For the same compound, the GI50 in assay [7] is 20.1 µM (inactive); in assay [8] it was 19 µM; in assay [9], 20.8 µM (inactive); in assay [10] it was 15.2 µM (inactive); in assay [11], 12.4 µM (inactive); in assay [12], 16.5 µM (inactive). Besides, the GI50 in assay [13] is 19.6 µM (inactive); in assay [14], 10.5 µM (inactive); in assay [20], 16.6 µM (inactive); in assay [15] it was 18.9 µM (inactive); in [16], 16.4 µM (inactive); in assay [17], 16.8 µM (inactive). Further, the GI50 in assay [18] was 13.8 µM (inactive).

Regarding `O=c1oc2ccc(Cl)cc2cc1-c1cn2ccsc2n1`, the GI50 in assay [1] was 57.7 µM (inactive); in assay [2], 42.4 µM (inactive); in assay [19], 34.1 µM (inactive); in [4], 52.8 µM (inactive); in assay [5], 51.9 µM (inactive); in [6] it was 46.8 µM (inactive). The GI50 in [7] was 95.1 µM (inactive); in assay [8], 36.1 µM; in [9], 42.8 µM (inactive); in assay [10], 57 µM (inactive); in assay [11], 36.6 µM (inactive); in [12], 51.1 µM (inactive). Besides, the GI50 in assay [13] was 33.5 µM (inactive); in assay [14], 46.6 µM (inactive); in assay [20], 36.1 µM (inactive); in [15] it was 49.9 µM (inactive); in assay [16] it was 95.7 µM (inactive); in assay [17], 40 µM (inactive). Besides, in assay [18], the GI50 is 12.4 µM (inactive).

Take `COI1NC(=O)c2ccccc21`: the GI50 in assay [1], in assay [2], in [3], in assay [4], in assay [5] and in [6] was > 100 µM (inactive) in each case. The GI50 in [8] was over 100 µM; in assay [10], > 100 µM (inactive); in assay [11], > 100 µM (inactive); in [12], > 100 µM (inactive); in [13], > 100 µM (inactive); in [14], > 100 µM (inactive). Besides, the GI50 in assay [20], in assay [16], in assay [17] and in assay [18] was > 100 µM (inactive) in each case.

`S=c1cc(-c2ccc3c(c2)OCO3)s[nH]1`: the GI50 in assay [1] is > 100 µM (inactive); in assay [2], > 100 µM (inactive); in [3] it was 46.6 µM (inactive); in assay [4], > 100 µM (inactive); in assay [5] it was > 100 µM (inactive); in [6], > 100 µM (inactive). In addition, the GI50 in assay [7] was > 100 µM (inactive); in assay [8], over 100 µM; in assay [9], > 100 µM (inactive); in assay [10] it was > 100 µM (inactive); in assay [11] it was > 100 µM (inactive); in assay [12], > 100 µM (inactive). The GI50 in assay [13], in assay [14], in assay [20], in assay [15], in assay [16] and in assay [17] was > 100 µM (inactive) in each case. Moreover, in assay [18], the GI50 is > 100 µM (inactive).

Take `CC(C)[Si](OC1=C(C(=O)N(C)c2ccccc2Cl)CCCCC1)(C(C)C)C(C)C`: the GI50 in [1], in assay [2], in [3], in [4], in assay [5] and in assay [6] was > 100 µM (inactive) each time. The GI50 in [7] is > 100 µM (inactive); in [8], over 100 µM; in assay [9] it was > 100 µM (inactive); in assay [10], > 100 µM (inactive); in assay [11] it was > 100 µM (inactive); in assay [12], > 100 µM (inactive). Also, the GI50 in assay [14], in assay [20], in assay [15], in [16], in assay [17] and in [18] was > 100 µM (inactive) each time.

In the case of `CCc1n[nH]c(=O)n1/N=C/c1ccc(/C=N/n2c(CC)n[nH]c2=O)cc1`, the GI50 in [1], in [2], in assay [3], in [4], in [5] and in assay [6] was > 100 µM (inactive) in each case. For the same compound, the GI50 was > 100 µM (inactive) in assay [7]; over 100 µM in assay [8]; > 100 µM (inactive) in assay [9]; > 100 µM (inactive) in assay [10]; > 100 µM (inactive) in assay [11]; > 100 µM (inactive) in assay [12]. In addition, the GI50 in assay [13], in assay [14], in assay [20], in [15], in [16] and in [17] was > 100 µM (inactive) in each case.

Turning to `CCOC(=O)c1cc(I)c(-c2cc(C)no2)n1C`, the GI50 was 94 µM (inactive) in assay [1]; 21.1 µM (inactive) in assay [2]; 23.7 µM (inactive) in assay [3]; 74.1 µM (inactive) in assay [4]; 60.5 µM (inactive) in assay [5]; 71.6 µM (inactive) in assay [7]. Besides, the GI50 was 49.9 µM in [8]; 20.3 µM (inactive) in [9]; 21.5 µM (inactive) in assay [10]; 40.4 µM (inactive) in assay [11]; 33.1 µM (inactive) in assay [12]; 26.8 µM (inactive) in [13]. The GI50 is 60.1 µM (inactive) in [14]; 42.4 µM (inactive) in assay [20]; 76.7 µM (inactive) in [15]; 89.9 µM (inactive) in assay [16]; 38.4 µM (inactive) in assay [17]; 36.4 µM (inactive) in assay [18].

As to `CCOc1c2c(cc3c1C(=O)c1c(OC)cccc1C3=O)C=C(OC)CC2`, the GI50 was 18.8 µM (inactive) in assay [1]; 10.6 µM (inactive) in assay [2]; > 25 µM (inactive) in assay [3]; 10.3 µM (inactive) in assay [4]; 22.3 µM (inactive) in [5]; > 25 µM (inactive) in assay [6]. The GI50 in assay [7] was > 25 µM (inactive); in [8], 11.9 µM; in assay [9], > 25 µM (inactive); in assay [10], > 25 µM (inactive); in assay [11], 17.4 µM (inactive); in assay [12] it was 10.1 µM (inactive). The GI50 in assay [13] was 6.87 µM (inactive); in assay [14], > 25 µM (inactive); in [20], 21.6 µM (inactive); in [15], 13.3 µM (inactive); in assay [16], > 25 µM (inactive); in [17] it was > 25 µM (inactive). For the same compound, the GI50 in assay [18] was > 25 µM (inactive).

As for `CO[P@]1(=O)O[C@@H](c2ccccc2)[C@H](O)[C@@]1(O)c1ccccc1`, the GI50 in assay [1], in assay [2], in [3], in [4], in assay [5] and in [7] was > 100 µM (inactive) in each case. The GI50 in assay [8] was over 100 µM; in assay [9], > 100 µM (inactive); in assay [10], > 100 µM (inactive); in assay [11] it was > 100 µM (inactive); in assay [12] it was > 100 µM (inactive); in [13] it was > 100 µM (inactive). Further, the GI50 in [20], in assay [15], in assay [16], in assay [17] and in [18] was > 100 µM (inactive) throughout.

Take `O=C(Nc1ccccn1)/C(=C\C(=O)c1ccc(Cl)cc1)Nc1ccccc1`: the GI50 in [1], in assay [2], in [19], in assay [4], in [6] and in assay [7] was > 10 µM (inactive) throughout. The GI50 in assay [8] was over 10 µM; in assay [9], > 10 µM (inactive); in [10] it was > 10 µM (inactive); in assay [12], > 10 µM (inactive); in [13], > 10 µM (inactive); in assay [14], > 10 µM (inactive). In addition, the GI50 in [20], in assay [16] and in assay [18] was > 10 µM (inactive) each time.
